{"source": "ChEMBL document CHEMBL1158138", "about": "“Cucurbitane triterpenes from the fruiting bodies and cultivated mycelia of Leucopaxillus gentianeus” (J Nat Prod, 2006)", "note": "The source made the active and inactive calls. The rule behind the calls is not given here."}
{"target": "T1, DNA topoisomerase 1 (Homo sapiens) (UniProt P11387)", "T1 sequence (whole entry)": "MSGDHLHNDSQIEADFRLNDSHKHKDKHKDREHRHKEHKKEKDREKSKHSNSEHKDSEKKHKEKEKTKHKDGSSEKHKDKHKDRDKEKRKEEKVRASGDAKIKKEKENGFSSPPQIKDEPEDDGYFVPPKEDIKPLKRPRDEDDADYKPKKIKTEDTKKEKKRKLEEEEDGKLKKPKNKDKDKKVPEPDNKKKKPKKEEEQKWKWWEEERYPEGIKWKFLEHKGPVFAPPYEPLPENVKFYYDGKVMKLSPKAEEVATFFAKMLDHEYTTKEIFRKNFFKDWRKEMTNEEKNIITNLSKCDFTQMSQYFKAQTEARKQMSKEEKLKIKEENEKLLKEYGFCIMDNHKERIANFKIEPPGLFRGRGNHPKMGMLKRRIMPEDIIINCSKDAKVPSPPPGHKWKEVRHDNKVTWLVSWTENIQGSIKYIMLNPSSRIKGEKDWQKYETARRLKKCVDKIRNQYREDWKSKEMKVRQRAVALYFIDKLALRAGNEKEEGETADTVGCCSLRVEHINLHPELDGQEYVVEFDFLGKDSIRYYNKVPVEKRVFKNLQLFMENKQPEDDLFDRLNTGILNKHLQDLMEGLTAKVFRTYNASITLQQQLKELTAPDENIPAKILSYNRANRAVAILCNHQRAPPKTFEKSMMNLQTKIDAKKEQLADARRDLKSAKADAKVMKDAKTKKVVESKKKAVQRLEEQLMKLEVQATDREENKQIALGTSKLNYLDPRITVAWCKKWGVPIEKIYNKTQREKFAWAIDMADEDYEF", "assay": "Inhibition of topoisomerase 1-mediated SV40 DNA cleavage at 1 to 50 uM by gel electrophoresis", "conditions": "not given"}
{"smiles": "CCc1c2c(nc3ccc(O)cc13)-c1cc3c(c(=O)n1C2)COC(=O)[C@]3(O)CC", "Activity": "Active"}
{"smiles": "CC(=O)OC(C)(C)/C=C/C(=O)[C@](C)(O)[C@H]1[C@H](O)C[C@@]2(C)[C@@H]3CC=C4[C@H](C[C@H](O)C(=O)C4(C)C)[C@]3(C)C(=O)C[C@]12C", "note": "[CUCURBITACIN B]", "Activity": "Active"}
{"system": "NCI-H460", "assay": "Antiproliferative activity against human NCI-H460 cells after 72 hrs", "type": "functional, cell-based", "conditions": "NCI-H460, 72 h", "units": {"IC50": "µg/mL"}}
{"smiles": "CC(=O)OC(C)(C)/C=C/C(=O)[C@@](C)(O)[C@H]1CC[C@@]2(C)[C@@H]3CC=C4[C@@H](C[C@H](O)C(=O)C4(C)C)[C@]3(C)C(=O)C[C@]12C", "note": "[16-DEOXYCUCURBITACIN B]", "IC50": 0.06}
{"smiles": "CC(=O)O[C@H](C[C@@H](OC(C)=O)C(C)(C)O)[C@@H](C)[C@H]1[C@H](O)C[C@@]2(C)[C@@H]3CC=C4[C@@H](CCC(=O)C4(C)C)[C@]3(C)C(=O)C[C@]12C", "note": "[18-DEOXYLEUCOPAXILLONE A]", "IC50": 10.6}
{"smiles": "CC(=O)OC(C)(C)/C=C/C(=O)[C@](C)(O)[C@H]1[C@H](O)C[C@@]2(C)[C@@H]3CC=C4[C@H](C[C@H](O)C(=O)C4(C)C)[C@]3(C)C(=O)C[C@]12C", "note": "[CUCURBITACIN B]", "IC50": 0.011}
{"smiles": "CC(C)(O)/C=C/C(=O)[C@](C)(O)[C@H]1[C@H](O)C[C@@]2(C)[C@@H]3CC=C4[C@@H](C[C@H](O)C(=O)C4(C)C)[C@]3(C)C(=O)C[C@]12C", "note": "[CUCURBITACIN D]", "IC50": 0.12}
{"smiles": "CC(=O)O[C@H](C[C@@H](OC(C)=O)C(C)(C)O)[C@@H](C)[C@H]1CC[C@@]2(C)[C@@H]3CC=C4[C@@H](CCC(=O)C4(C)C)[C@]3(C)CC[C@]12CO", "note": "[LEUCOPAXILLONE A]", "IC50": 3.5}
{"smiles": "CC(=O)O[C@H](C[C@@H](OC(C)=O)C(C)(C)O)[C@@H](C)[C@H]1CC[C@@]2(C)[C@@H]3CC=C4[C@@H](CCC(=O)C4(C)C)[C@]3(C)[C@]3(O)C[C@]12CO3", "note": "[LEUCOPAXILLONE B]", "IC50": 0.3}
{"smiles": "CC[C@@]1(O)C(=O)OCc2c1cc1n(c2=O)Cc2cc3c(CN(C)C)c(O)ccc3nc2-1", "note": "[TOPOTECAN]", "IC50": 0.008}
